Assay results as given in US20060183794A1, “Drug composition containing nf-kb inhibitor” (priority 2002, published 2006).

Assays:
[1] = system: ICAM-1, VCAM-1, and E-selectin; assay: Western blot of adhesion molecule expression in TNF-α-stimulated HUVECs; format: cell-based, human; details: HUVECs pretreated with DHMEQ for 2 hours, 10 ng/ml TNF-α
Description: The protein concentration of this supernatant was determined by a liquid of Coomassie Brilliant Blue (Bio-Rad), and concentration was adjusted. Subsequently, 3×SDS loading buffer (150 mM Tris-HCl: pH 6.8, 30% glycerol, 3% SDS (Kanto Kagaku), 0.03 mg/ml bromophenol blue, 150 μl/ml 2-mercaptoethanol (Kanto Kagaku)) was added at a volume equal to half the volume of the lysis buffer that had been added, followed by boiling for 5 min. Using this as a sample, electrophoresis was performed in a 12.5% polyacrylamide gel. After the electrophoresis, the proteins in the gel were transferred to a PVDF membrane (Amersham) and blocked with TBS buffer (20 mM Tris-HCl: pH7.6, 137 mM NaCl) containing 5% skim milk (Snow Brand). Subsequently, the proteins were reacted with the PVDF membrane using antibodies to ICAM-1 (Santa Cruz), VCAM-1 (Santa Cruz), and E-selectin (Santa Cruz), followed by reactions with secondary antibodies (the secondary antibodies to ICAM-1, VCAM-1, and E-selectin (Amersham and Santa Cruz)) suitable to each primary antibody. Further, color was developed by the ECL method, followed by exposure to a film.

[2] = system: ATL cell lines (MT-1 and TL-Om1); assay: MTT assay, proliferation of ATL cell lines; format: cell-based, human
Description: (§1) Cells from the ATL cell lines (MT-1 and TL-Om1) and a control cell line (K562) were plated in 96-well plates at 1×10^5 cells/well and DHM2EQ was added at the desired final concentrations (2, 5, and 10 μg/ml). Cells to which the solvent DMSO had been added in equal volume (0 μg/ml) were used as […] incubation for 72 hours, cell viability was judged by the MTT assay. Relative MTT values were obtained as the ratio of the MMT values of DHM2EQ-treated cells to those of DHM2EQ-untreated cells, i.e., (MTT values of DHM2EQ-treated cells/MTT values of DHM2EQ-untreated cells)×100(%).
(§2) DHM2EQ was added to the ATL cell lines (MT-1 and TL-Om1) and a control cell line (K562) at a final concentration of 10 μg/ml and the cells were incubated for 12, 24, 48, and 72 hours. The proliferation-inhibitory effect was examined by the MTT assay. Cells to which the solvent DMSO had been added in equal volume were used as controls. Relative MTT values were obtained in the same manner as the aforementioned (1).

[3] = system: ATL cells of ATL patients; assay: MTT assay, ATL cells from peripheral blood of ATL patients; format: cell-based, human; details: three cases; 10 μg/ml, 24 hours
Description: Mononuclear cells were isolated from peripheral blood cells of ATL patients and ATL cells were isolated. DHM2EQ was added to the isolated ATL cells of three cases at a final concentration of 10 μg/ml and the cells were incubated for 24 hours. The proliferation-inhibitory effect was examined by the MTT assay. Using the cells to which solvent DMSO had been added in equal volume as controls, the proliferation-inhibitory effect was evaluated by the ratio of the MMT values of DHM2EQ-treated cells to those of DHM2EQ-untreated cells, i.e., (MTT values of DHM2EQ-treated cells/MTT values of DHM2EQ-untreated cells).

[4] = system: MM cell lines, KMM1, RPMI8226, and U266; assay: MTT assay, proliferation of multiple myeloma cell lines; format: cell-based
Description: as §1, §2
To investigate the influence of the DHMEQ concentrations on inhibition of cell proliferation, the cell viability was judged by using the MM cell lines, KMM1, RPMI8226, and U266 in the same method as in Example 5-(1). […]

KMH2 = assay: MTT assay, KMH2 cells, DHMEQ combined with antitumor agents; format: cell-based; details: DHMEQ 10 μg/ml, 48 hours, with camptothecin, daunomycin or etoposide
Description: as §2
The effects of antitumor agents and the enhancing effect thereon were examined by the MTT assay method as described in Example 5(2).
In this example, the cells used were KMH2. The horizontal axes in FIG. 31 indicate the concentrations of each antitumor agent the DHMEQ concentration. The concentrations of each anticancer agent were set at three levels. The examination was performed on DHMEQ alone, the antitumor agent alone, or both in combination, at each level. DHMEQ was used at a concentration of 10 μg/ml and the treatment time was 48 hours. The vertical axis indicates the relative values of the MTT values of treated cells versus untreated cells, i.e., (treated/untreated)×100%.

[5] = system: ATL cell line MT-2 in SCID mice; assay: Survival of SCID mice intraperitoneally inoculated with ATL cell line MT-2; format: in vivo; details: for mice survived: p<0.05
Description: First, five-week-old male SCID mice (CB17-scid/scid; SLC Japan, Inc (Shizuoka, Japan)) were treated for 3 to 5 days with 1 mg of IL-2 receptor antibody (TM-β1; J. Immunol. 147: 2222-2228, 1991), and intraperitoneally inoculated with the ATL cell line MT-2 (3 to 4×10^7 cells). Subsequently, the mice were intraperitoneally given 4 mg/kg bw or 12 mg/kg bw DHMEQ dissolved in 5% carboxymethyl cellulose (CMC; Sigma) solution three times a week for one month, and their survival probability and status were observed. […] The survival curve was calculated by the Kaplan-Mayer method, and the statistically significant difference was determined by the Cox-Mantel test.

[6] = system: human pancreatic cancer cell line PK-2; assay: Human pancreatic cancer PK-2 subcutaneous tumor in SCID mice; format: in vivo; details: PK-2 s.c., 12 mg/kg i.p.
Description: The in vivo suppressive effect of DHMEQ on proliferation of tumor cells in human pancreatic cancer. The human pancreatic cancer cell line PK-2 (2×10^6 cells) was inoculated subcutaneously in the right back of SCID mice (n=7) and then 12 mg/kg DHMEQ was injected intraperitoneally (i.p.) at a dose of 200 μl every other day for five days. Subsequently, the major axis and minor axis of the tumors were measured every seven days. The tumor volume was calculated as follows: (major axis)×(minor axis)^2×0.5.

[7] = system: human pancreatic cancer cell lines, Panc-1, PK-8, and Colo357; assay: In vitro proliferation of human pancreatic cancer cell lines, DHMEQ with irradiation; format: cell-based
Description: The in vitro suppressive effect of DHMEQ on proliferation of human pancreatic cancer cell lines when DHMEQ and irradiation are used in combination was investigated. The human pancreatic cancer cell lines, Panc-1, PK-8, and Colo357 were plated 10 cm dishes (5×10^5 cells each). After two days, cells were irradiated with either 2.5 Gy or 10 Gy radiation, followed by administration of 10 μg/ml DHMEQ for 4 hours in the combinatin group. The number of cells was measured after 24 hours. Either the point of the completion of irradiation or the point of the start of the drug administration was assumed to be 0 hours.

## O=C(NC1=CC(=O)C2OC2C1O)c1ccccc1O (stereo not shown) [DHMEQ, 5,6-epoxy-4-hydroxy-3-salicyloylamino-2-cyclohexenone]
[1]
  expression of ICAM-1, VCAM-1 and E-selectin: markedly suppressed
[2]; 10 μg/ml, 12, 24, 48, 72 hours
  cell proliferation, time course (MTT): inhibited in proportion to the DHM2EQ treatment time
[2]; 2, 5, 10 μg/ml, 72 hours
  cell proliferation, concentration dependence (MTT): inhibited in proportion to the DHM2EQ concentrations added
[3]
  proliferation of ATL cells obtained from patients (MTT): exhibits an inhibitory effect
[4]
  cell proliferation, concentration dependence (MTT): suppressed in proportion to the DHMEQ concentrations
  cell proliferation, time course (MTT): suppressed in proportion to the DHMEQ treatment time
KMH2
  effect on the action of antitumor agents (MTT): enhances the effect of any antitumor agent used
[5]; 4 mg/kg i.p. three times a week for one month, about 200 days, control all 5 dead
  mice survived: 4 out of 6
[5]; 12 mg/kg i.p. three times a week for one month, about 30 days, control 4 out of 5 dead
  mice survived: 5 out of 6
[5]; SCID mice, up to three volumes of 4 mg/kg
  toxicity, anomalies in body weights etc.: toxicity was not noted
[6]
  proliferation of tumor cells (tumor volume): significantly suppresses
[7]; Colo357 and Panc-1, 10 μg/ml 4 hours after irradiation
  suppressive effect on proliferation in combination with irradiation: synergistic suppressive effect
[7]; Colo357 and Panc-1, combination with irradiation
  enhancement of irradiation effect (2.5 Gy to 10 Gy or equivalent): four-fold
[7]; PK-8 and Colo357, 10 μg/ml, 4-hour contact, cell number after 24 hours
  suppressive effect on proliferation, DHMEQ alone: sufficient suppressive effect
[7]; PK-8 and Colo357, 10 μg/ml, 4 hours
  radiation dose of equal effect: 2.5 Gy
[7]; Panc-1
  effectiveness of DHMEQ alone: less effective
